We go through 30 compounds from ChEMBL document CHEMBL2150974 (J Med Chem, 2012).

Calls of active or inactive are those of the source. The rule behind the calls is not given here.

For experiment [1], the target named is T1, Mitogen-activated protein kinase 14 (Homo sapiens, UniProt Q16539). Description: Inhibition of p38alpha-dependent TNFalpha production in human whole blood.
Experiment [2] concerns the target T1, Mitogen-activated protein kinase 14. Description: Inhibition of p38alpha by immunosorbent based kinase assay.
For experiment [3], the system named is Serine/threonine-protein kinase B-raf (Homo sapiens), P15056 [V600E]. Description: Inhibition of BRAF V600E mutant at 10 uM.
In experiment [4] the target is Proto-oncogene tyrosine-protein kinase Src (Homo sapiens) (UniProt P12931). Description: Inhibition of SRC at 10 uM.
The target of experiment [5] is Aurora kinase B (Homo sapiens) (UniProt Q96GD4). Description: Inhibition of AuroraB at 10 uM.
Experiment [6] concerns the target T2, NUAK family SNF1-like kinase 1 (Homo sapiens) (UniProt O60285).
T2 sequence (whole entry): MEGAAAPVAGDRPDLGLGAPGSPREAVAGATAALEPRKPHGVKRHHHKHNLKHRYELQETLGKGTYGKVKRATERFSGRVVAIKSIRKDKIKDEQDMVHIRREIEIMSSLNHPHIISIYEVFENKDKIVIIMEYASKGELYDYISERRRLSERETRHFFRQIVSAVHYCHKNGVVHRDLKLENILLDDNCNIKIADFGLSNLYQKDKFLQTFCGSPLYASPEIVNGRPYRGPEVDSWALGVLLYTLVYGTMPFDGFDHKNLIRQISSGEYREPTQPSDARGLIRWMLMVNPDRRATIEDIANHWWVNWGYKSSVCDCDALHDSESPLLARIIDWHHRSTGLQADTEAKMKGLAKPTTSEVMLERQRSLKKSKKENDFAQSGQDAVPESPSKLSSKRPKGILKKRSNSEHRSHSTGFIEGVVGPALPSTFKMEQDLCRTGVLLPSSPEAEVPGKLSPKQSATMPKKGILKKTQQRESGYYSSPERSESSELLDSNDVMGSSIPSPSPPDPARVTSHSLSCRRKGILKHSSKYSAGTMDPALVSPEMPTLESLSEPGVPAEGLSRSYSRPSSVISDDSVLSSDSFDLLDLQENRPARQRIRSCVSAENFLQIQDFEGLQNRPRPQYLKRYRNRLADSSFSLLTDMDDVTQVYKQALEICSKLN
Description: Inhibition of ARK5 at 10 uM.

For experiment [7], the target named is BDNF/NT-3 growth factors receptor (Homo sapiens) (UniProt Q16620). Description: Inhibition of TRKB at 10 uM.
In experiment [8] the target is RAC-alpha serine/threonine-protein kinase (Homo sapiens) (UniProt P31749). Description: Inhibition of AKT1 at 10 uM.
Experiment [9] concerns the target Hepatocyte growth factor receptor (Homo sapiens) (UniProt P08581). Description: Inhibition of MET at 10 uM.
In experiment [10] the target is Serine/threonine-protein kinase N1 (Homo sapiens) (UniProt Q16512). Description: Inhibition of PRK1 at 10 uM.
Experiment [11] deals with Insulin-like growth factor 1 receptor (Homo sapiens) (UniProt P08069). Description: Inhibition of IGF1R at 10 uM.
Experiment [12] addresses Tyrosine-protein kinase receptor UFO (Homo sapiens) (UniProt P30530). Description: Inhibition of AXL at 10 uM.
Experiment [13] addresses Serine/threonine-protein kinase PLK1 (Homo sapiens) (UniProt P53350). Description: Inhibition of PLK1 at 10 uM.
Experiment [14] has as its target Focal adhesion kinase 1 (Homo sapiens) (UniProt Q05397). Description: Inhibition of FAK at 10 uM.
In experiment [15] the target is Insulin receptor (Homo sapiens) (UniProt P06213). Description: Inhibition of INSR at 10 uM.
Experiment [16] deals with Casein kinase II subunit alpha (Homo sapiens) (UniProt P68400). Description: Inhibition of CK2alpha1 at 10 uM.
In experiment [17] the target is T3, Serine/threonine-protein kinase PLK4 (Homo sapiens) (UniProt O00444).
T3 sequence (whole entry): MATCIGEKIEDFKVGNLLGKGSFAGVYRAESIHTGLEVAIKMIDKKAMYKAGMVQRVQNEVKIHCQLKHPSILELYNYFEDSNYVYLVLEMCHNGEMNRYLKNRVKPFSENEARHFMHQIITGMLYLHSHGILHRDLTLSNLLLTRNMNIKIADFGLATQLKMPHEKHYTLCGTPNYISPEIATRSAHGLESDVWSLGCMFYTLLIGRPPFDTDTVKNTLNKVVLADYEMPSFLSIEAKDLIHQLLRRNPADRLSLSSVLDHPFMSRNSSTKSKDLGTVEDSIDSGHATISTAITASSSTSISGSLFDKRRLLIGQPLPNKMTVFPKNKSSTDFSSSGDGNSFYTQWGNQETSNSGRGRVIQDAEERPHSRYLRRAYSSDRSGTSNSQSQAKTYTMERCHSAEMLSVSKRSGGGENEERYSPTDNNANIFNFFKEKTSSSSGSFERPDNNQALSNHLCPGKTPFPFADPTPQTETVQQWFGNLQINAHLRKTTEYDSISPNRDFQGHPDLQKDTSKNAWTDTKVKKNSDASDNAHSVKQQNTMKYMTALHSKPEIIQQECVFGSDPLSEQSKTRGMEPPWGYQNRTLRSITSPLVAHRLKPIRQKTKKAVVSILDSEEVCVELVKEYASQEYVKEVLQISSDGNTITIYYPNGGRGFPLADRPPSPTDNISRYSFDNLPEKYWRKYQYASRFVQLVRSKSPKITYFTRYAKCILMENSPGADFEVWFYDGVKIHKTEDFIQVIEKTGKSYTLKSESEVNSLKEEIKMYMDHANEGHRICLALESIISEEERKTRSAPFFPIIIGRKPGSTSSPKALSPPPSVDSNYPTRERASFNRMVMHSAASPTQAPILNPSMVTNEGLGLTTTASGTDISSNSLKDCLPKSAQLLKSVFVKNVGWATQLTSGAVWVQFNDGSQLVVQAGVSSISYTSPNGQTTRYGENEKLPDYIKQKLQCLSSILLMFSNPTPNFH
Description: Inhibition of SAK at 10 uM.

The target in experiment [18] is Vascular endothelial growth factor receptor 2 (Homo sapiens) (UniProt P35968). Description: Inhibition of VEGFR2 at 10 uM.

Chain of Insulin-like growth factor 1 receptor (Homo sapiens) (P08069 31-736 limits assumed): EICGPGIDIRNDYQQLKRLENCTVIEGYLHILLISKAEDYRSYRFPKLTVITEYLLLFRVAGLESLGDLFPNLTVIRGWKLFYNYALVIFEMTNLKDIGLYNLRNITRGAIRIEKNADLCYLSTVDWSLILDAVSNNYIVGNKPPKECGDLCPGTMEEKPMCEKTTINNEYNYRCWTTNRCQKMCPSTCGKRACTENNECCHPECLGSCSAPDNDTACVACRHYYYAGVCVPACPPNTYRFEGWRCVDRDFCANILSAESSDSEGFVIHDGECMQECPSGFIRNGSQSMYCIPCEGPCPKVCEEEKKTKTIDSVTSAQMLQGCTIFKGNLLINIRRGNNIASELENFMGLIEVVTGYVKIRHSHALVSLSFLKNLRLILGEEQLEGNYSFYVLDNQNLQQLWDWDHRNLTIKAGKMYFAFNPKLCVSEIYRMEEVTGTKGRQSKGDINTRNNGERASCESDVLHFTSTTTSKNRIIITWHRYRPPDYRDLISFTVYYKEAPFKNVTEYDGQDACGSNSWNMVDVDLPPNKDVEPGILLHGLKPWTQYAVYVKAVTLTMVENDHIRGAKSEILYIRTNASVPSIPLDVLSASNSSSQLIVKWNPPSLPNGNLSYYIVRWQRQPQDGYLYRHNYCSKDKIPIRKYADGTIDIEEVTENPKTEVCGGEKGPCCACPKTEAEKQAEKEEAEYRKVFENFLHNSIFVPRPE
Chain of Insulin-like growth factor 1 receptor (Homo sapiens) (P08069 741-1367 limits assumed): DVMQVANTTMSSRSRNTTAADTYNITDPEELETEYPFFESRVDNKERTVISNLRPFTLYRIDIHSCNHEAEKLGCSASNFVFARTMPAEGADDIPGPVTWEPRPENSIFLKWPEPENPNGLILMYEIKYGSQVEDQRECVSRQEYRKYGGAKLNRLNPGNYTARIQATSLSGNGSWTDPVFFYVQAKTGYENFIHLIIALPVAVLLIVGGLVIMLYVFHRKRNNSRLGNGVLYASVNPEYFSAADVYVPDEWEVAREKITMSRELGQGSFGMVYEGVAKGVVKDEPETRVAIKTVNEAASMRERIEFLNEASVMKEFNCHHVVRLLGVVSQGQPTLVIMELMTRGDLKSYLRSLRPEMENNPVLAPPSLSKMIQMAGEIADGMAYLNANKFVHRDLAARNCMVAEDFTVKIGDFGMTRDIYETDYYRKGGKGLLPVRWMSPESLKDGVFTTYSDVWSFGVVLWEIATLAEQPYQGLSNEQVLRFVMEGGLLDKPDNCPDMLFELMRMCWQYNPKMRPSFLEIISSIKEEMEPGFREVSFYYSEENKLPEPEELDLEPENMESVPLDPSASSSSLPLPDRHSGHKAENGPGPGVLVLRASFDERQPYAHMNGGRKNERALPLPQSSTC
T1 sequence (Q16539 whole entry): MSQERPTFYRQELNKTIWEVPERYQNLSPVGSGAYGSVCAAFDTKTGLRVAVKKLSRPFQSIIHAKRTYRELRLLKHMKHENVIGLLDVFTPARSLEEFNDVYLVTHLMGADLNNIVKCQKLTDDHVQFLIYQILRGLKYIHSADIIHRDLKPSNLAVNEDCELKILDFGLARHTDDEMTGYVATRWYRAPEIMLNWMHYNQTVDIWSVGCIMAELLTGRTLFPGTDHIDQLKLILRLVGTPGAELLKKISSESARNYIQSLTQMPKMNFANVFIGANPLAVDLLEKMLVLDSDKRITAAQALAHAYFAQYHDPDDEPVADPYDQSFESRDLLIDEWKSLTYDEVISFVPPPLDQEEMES
Chain of Serine/threonine-protein kinase PLK1 (Homo sapiens) (P53350 whole entry): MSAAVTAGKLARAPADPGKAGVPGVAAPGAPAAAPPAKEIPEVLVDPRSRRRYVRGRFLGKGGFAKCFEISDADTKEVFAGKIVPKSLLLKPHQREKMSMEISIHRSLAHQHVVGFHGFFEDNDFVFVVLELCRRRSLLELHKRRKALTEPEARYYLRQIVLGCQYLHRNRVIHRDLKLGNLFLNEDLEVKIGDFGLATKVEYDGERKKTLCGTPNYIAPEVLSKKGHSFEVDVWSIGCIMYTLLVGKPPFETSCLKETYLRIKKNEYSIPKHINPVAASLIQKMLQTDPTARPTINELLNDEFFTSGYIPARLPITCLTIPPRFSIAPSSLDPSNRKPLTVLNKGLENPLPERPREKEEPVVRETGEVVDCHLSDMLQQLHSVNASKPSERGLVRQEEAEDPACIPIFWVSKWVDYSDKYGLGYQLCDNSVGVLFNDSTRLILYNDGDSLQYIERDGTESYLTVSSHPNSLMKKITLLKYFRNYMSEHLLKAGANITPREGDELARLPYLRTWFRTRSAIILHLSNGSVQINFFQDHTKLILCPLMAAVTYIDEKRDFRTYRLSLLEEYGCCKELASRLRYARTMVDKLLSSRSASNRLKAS
Chain of Serine/threonine-protein kinase N1 (Homo sapiens) (Q16512 2-942 limits assumed): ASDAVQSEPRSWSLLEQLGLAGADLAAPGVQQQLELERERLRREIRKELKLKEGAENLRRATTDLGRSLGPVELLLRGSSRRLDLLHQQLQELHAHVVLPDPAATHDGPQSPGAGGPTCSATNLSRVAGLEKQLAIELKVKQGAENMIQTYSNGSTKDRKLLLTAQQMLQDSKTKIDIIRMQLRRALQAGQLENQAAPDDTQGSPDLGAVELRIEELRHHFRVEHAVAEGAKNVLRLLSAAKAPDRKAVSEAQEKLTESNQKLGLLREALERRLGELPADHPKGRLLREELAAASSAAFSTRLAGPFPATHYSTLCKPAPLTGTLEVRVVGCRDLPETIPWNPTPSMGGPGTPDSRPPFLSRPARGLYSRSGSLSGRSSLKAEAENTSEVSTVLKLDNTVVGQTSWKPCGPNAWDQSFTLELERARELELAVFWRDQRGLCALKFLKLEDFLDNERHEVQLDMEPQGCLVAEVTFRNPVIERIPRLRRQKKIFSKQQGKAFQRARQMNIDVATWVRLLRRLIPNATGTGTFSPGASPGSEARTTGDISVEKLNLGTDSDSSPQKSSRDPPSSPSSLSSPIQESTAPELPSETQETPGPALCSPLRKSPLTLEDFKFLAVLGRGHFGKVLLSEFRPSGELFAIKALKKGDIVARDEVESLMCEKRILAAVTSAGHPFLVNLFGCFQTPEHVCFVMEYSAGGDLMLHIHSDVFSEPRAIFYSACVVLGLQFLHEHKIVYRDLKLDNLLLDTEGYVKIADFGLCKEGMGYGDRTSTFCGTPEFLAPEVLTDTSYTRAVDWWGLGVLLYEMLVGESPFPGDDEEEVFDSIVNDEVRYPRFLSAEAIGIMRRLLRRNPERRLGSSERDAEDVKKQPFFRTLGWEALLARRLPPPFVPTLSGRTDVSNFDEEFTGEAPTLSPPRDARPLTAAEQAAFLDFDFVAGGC
Chain of Insulin receptor (Homo sapiens) (P06213 28-758 limits assumed): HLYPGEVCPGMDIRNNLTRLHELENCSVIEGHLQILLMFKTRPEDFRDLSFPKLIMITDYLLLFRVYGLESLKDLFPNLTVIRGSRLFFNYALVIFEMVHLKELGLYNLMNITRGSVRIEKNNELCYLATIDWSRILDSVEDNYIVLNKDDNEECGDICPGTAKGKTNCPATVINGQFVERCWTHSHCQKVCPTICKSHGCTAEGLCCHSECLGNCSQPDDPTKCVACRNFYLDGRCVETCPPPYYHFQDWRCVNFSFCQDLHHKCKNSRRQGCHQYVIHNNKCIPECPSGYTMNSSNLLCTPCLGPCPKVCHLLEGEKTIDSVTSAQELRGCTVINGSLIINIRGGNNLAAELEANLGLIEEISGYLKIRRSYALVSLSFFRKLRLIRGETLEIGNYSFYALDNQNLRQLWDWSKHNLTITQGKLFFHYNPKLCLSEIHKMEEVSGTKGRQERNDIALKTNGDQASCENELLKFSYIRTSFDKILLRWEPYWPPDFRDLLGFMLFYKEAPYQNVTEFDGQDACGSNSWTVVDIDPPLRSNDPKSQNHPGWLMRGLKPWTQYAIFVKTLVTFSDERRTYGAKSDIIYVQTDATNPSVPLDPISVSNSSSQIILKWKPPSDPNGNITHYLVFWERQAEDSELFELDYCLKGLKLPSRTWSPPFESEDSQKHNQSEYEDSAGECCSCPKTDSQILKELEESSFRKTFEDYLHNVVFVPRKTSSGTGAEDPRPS
Chain of Insulin receptor (Homo sapiens) (P06213 763-1382 limits assumed): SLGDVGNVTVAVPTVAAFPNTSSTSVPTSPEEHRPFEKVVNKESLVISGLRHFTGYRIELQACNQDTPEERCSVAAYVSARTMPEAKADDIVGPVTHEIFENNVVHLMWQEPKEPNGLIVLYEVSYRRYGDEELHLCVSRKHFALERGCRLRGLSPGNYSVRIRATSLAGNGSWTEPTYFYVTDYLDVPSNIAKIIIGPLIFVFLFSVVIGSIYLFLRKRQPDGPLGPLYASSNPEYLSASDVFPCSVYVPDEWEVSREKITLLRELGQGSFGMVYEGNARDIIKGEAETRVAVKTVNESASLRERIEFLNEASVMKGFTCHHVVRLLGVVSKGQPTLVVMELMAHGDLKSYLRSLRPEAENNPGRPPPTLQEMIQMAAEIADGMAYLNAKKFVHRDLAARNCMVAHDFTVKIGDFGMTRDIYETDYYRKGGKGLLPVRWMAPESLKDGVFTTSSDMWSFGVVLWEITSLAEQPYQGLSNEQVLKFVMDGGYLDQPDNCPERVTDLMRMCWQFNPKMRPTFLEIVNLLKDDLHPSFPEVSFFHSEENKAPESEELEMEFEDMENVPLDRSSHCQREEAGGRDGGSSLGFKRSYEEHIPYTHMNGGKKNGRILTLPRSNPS
Chain of Casein kinase II subunit alpha (Homo sapiens) (P68400 whole entry, looked up): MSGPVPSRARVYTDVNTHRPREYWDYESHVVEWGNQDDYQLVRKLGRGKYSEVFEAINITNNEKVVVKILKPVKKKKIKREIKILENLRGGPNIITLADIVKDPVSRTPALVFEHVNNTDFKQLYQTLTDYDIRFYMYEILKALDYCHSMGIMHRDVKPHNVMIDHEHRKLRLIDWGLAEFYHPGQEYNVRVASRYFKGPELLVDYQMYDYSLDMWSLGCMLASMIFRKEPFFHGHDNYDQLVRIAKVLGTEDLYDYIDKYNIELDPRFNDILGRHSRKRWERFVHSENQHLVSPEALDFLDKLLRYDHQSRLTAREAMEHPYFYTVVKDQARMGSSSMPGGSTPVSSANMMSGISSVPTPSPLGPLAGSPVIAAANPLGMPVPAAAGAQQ

For orientation: IC50 means the concentration that gives 50% inhibition. The low end stands for greater potency in that assay, the high end for weaker potency in that assay. Consider `COc1ccc2c(c1)C(=O)c1ccc(Nc3ccccc3)cc1CC2`, for which the values for the half-maximal inhibitory concentration (IC50) in experiment [1] and in experiment [2] were 3200 nM and 70 nM, respectively.
`O=C1c2ccc(Oc3ccc(F)cc3F)cc2CCc2ccc(OCCN3CCOCC3)cc21`: the results for the IC50 in experiment [1] and in experiment [2] were 4500 nM and 80 nM, respectively.
For `O=C1c2ccc(Nc3ccc(F)cc3F)cc2CCc2cc(OCCCO)ccc21`, the IC50 came to 19500 nM in experiment [1] and 30 nM in experiment [2].
On to `COc1ccc2c(c1)C(=O)c1ccc(Nc3cc(F)cc(F)c3F)cc1CC2`, for which the inhibition entry in experiment [3], in [4], in experiment [5], in experiment [6], in [7] and in experiment [8] was “inactive” each time. The inhibition entry in experiment [9], in experiment [10], in [11], in [12], in experiment [13] and in experiment [14] was “inactive” each time. The inhibition result in [15], in [16], in experiment [17] and in experiment [18] was “inactive” throughout. Besides, the IC50 in experiment [1] stood at 4300 nM; in experiment [2], 50 nM.
Consider `Nc1ccccc1Nc1ccc2c(c1)CCc1ccc(OC[C@@H](O)CO)cc1C2=O`, for which the IC50 in experiment [1] is 170 nM; in [2], 8 nM.
In the case of `CC1(C)OC[C@H](COc2ccc3c(c2)C(=O)c2ccc(Nc4ccc(F)cc4F)cc2CC3)O1`, the inhibition result in experiment [3], in experiment [4], in [5], in [6], in experiment [7] and in experiment [8] was “inactive” each time. For the same compound, the inhibition result in [9], in experiment [10], in [11], in experiment [12], in experiment [13] and in [14] was “inactive” in each case. For the same compound, the inhibition entry in experiment [15], in experiment [16], in [17] and in experiment [18] was “inactive” throughout. Besides, the results for the 50% inhibitory concentration (IC50) in [1] and in [2] were 230 nM and 20 nM, respectively.
For `COc1ccc2c(c1)C(=O)c1ccc(Nc3ccccc3F)cc1CC2`, the IC50 in experiment [1] is 4900 nM; in experiment [2], 70 nM.
With `O=C1c2ccc(Nc3ccccc3Cl)cc2CCc2ccc(O)cc21`, the concentration for half-maximal inhibition (IC50) in [1] came to 7500 nM; in experiment [2], 140 nM.
Regarding `O=C1c2ccc(Nc3ccc(F)cc3F)cc2CCc2ccc(O)cc21`, the IC50 in experiment [1] was found to be 700 nM; in experiment [2], 20 nM.
As for `COc1ccc2c(c1)CCc1cc(Nc3ccc(F)cc3F)ccc1C2=O`, the IC50 came to 10200 nM in experiment [1] and 20 nM in experiment [2].
Take `COc1ccc2c(c1)C(=O)c1ccc(Nc3ccccc3N)cc1CC2`: the IC50 in experiment [1] was 1500 nM; in [2] it was 40 nM.
Taken in the same sequence, the figures for `COc1ccc2c(c1)CCc1cc(Nc3ccccc3N)ccc1C2=O` were 12300 nM and 70 nM.
Consider `CC1(C)OC[C@@H](COc2ccc3c(c2)C(=O)c2ccc(Nc4ccc(F)cc4F)cc2CC3)O1`, for which the IC50 amounted to 230 nM in experiment [1] and 40 nM in experiment [2].
On to `COc1ccc2c(c1)C(=O)c1ccc(Nc3ccc(F)cc3N)cc1CC2`, for which the IC50 in [1] worked out at 1900 nM; in [2], 40 nM.
`O=C1c2ccc(Nc3ccc(F)cc3Cl)cc2CCc2ccc(O)cc21`: the values for the IC50 in experiment [1] and in experiment [2] were 3800 nM and 560 nM, respectively.
For `O=C1c2ccc(Nc3ccc(F)cc3F)cc2CCc2cc(OCCO)ccc21`, the values for the 50% inhibitory concentration (IC50) in experiment [1] and in experiment [2] were 4700 nM and 20 nM, respectively.
Turning to `COc1ccc2c(c1)C(=O)c1ccc(Nc3ccccc3OC)cc1CC2`, the IC50 in [1] was found to be 7600 nM; in experiment [2], 380 nM.
Take `O=C1c2ccc(Oc3ccc(F)cc3F)cc2CCc2ccc(OC[C@@H](O)CO)cc21`: the half-inhibitory concentration (IC50) amounted to 6700 nM in [1] and 40 nM in experiment [2].
With `COc1ccc2c(c1)C(=O)c1ccc(Nc3ccc(F)c(F)c3F)cc1CC2`, the results for the IC50 in [1] and in [2] were 81000 nM and 3530 nM, respectively.
The matching figures for `Nc1ccccc1Nc1ccc2c(c1)CCc1cc(OC[C@H](O)CO)ccc1C2=O`: 6000 nM and 30 nM.
As to `O=C1c2ccc(Nc3ccc(F)cc3F)cc2CCc2cc(OCCN3CCOCC3)ccc21`, the results for the IC50 in experiment [1] and in [2] were 40000 nM and 20 nM, respectively.
Taken in the same sequence, the figures for `O=C1c2ccc(Nc3ccc(F)cc3F)cc2CCc2ccc(OCCN3CCOCC3)cc21` were 80 nM and 10 nM.
Consider `O=c1c2ccc(Nc3ccc(F)cc3F)cc2ccc2ccc(O)cc12`, for which the IC50 worked out at 26700 nM in experiment [1] and 300 nM in experiment [2].
As to `O=C1c2ccc(Nc3ccc(F)cc3F)cc2CCc2ccc(OC[C@@H](O)CO)cc21`, the inhibition result in experiment [3], in experiment [4], in experiment [5], in [6], in experiment [7] and in experiment [8] was “inactive” in each case. Moreover, the inhibition result in experiment [9], in [10], in experiment [11], in [12], in [13] and in experiment [14] was “inactive” in each case. In addition, the inhibition entry in [15], in [16], in experiment [17] and in [18] was “inactive” in each case.
Consider `O=C1c2ccc(Nc3ccc(F)cc3F)cc2CCc2ccc(OCC[C@@H](O)CO)cc21`, for which the values for the IC50 in [1] and in [2] were 80 nM and 10 nM, respectively.
For the compound `CC1(C)OC[C@@H](COc2ccc3c(c2)C(=O)c2ccc(Nc4ccccc4N)cc2CC3)O1`, the IC50 in experiment [1] came out at 190 nM; in experiment [2] it was 60 nM.
Consider `COc1ccc2c(c1)C(=O)c1ccc(Nc3ccc(F)cc3F)cc1CC2`, for which the values for the IC50 in experiment [1] and in experiment [2] were 1200 nM and 20 nM, respectively.
As to `COc1ccc2c(c1)C(=O)c1ccc(Oc3ccc(F)cc3F)cc1CC2`, in [2], the IC50 was determined as 100 nM. This lies in the sub-micromolar range.
For the compound `CC1(C)OC[C@H](COc2ccc3c(c2)CCc2cc(Nc4ccccc4N)ccc2C3=O)O1`, the concentration for half-maximal inhibition (IC50) in experiment [1] came to 93600 nM; in experiment [2] it was 80 nM.
With `O=C1c2ccc(Nc3ccccc3)cc2CCc2ccc(O)cc21`, the results for the 50% inhibitory concentration (IC50) in experiment [1] and in [2] were 2200 nM and 60 nM, respectively.
